The results in this text go back to patent US20040077580A1, “Antisense modulation of PI3K P85 Expression” (priority 2000, published 2004).

Strand notation (5' to 3'): a small letter for the sugar, then the base; units joined by * are phosphorothioate-linked, units joined directly phosphodiester-linked; [ ] holds rarer units or linkages, { } end groups; capitals alone tell only the bases. e = 2'-O-(2-methoxyethyl) (MOE); [5mC] = 5-methylcytosine; d = 2'-deoxy (DNA)

The first series concerns human PI3K p85 RNA. Nature of the series: Inhibition of human PI3K p85 mRNA levels by antisense oligonucleotides, real-time quantitative PCR. Format: cell-based. To be noted: chimeric phosphorothioate oligonucleotides with 2′-MOE wings and deoxy gap, oligonucleotide 150 nM, averaged from two experiments. As for the experimental part:
Cells were harvested 16 hours after oligonucleotide treatment.
Poly(A)+ mRNA was isolated according to Miura et al., Clin. Chem., 1996, 42, 1758-1764. Other methods for poly(A)+ mRNA isolation are taught in, for example, Ausubel, F. M. et al., Current Protocols in Molecular Biology, Volume 1, pp. 4.5.1-4.5.3, John Wiley & Sons, Inc., 1993. […] 60 μL lysis buffer (10 mM Tris-HCl, pH 7.6, 1 mM EDTA, 0.5 M NaCl, 0.5% NP-40, 20 mM vanadyl-ribonucleoside complex) was added to each well, the plate was gently agitated and then incubated at room temperature for five minutes. 55 μL of lysate was transferred to Oligo d(T) coated 96-well plates (AGCT Inc., Irvine Calif.). Plates were incubated for 60 minutes at room temperature, washed 3 times with 200 μL of wash buffer (10 mM Tris-HCl pH 7.6, 1 mM EDTA, 0.3 M NaCl). After the final wash, the plate was blotted on paper towels to remove excess wash buffer and then air-dried for 5 minutes. 60 μL of elution buffer (5 mM Tris-HCl pH 7.6), preheated to 70° C. was added to each well, the plate was incubated on a 90° C. hot plate for 5 minutes, and the eluate was then transferred to a fresh 96-well plate.
PI3K p85 probes and primers were designed to hybridize to the human PI3K p85 sequence, using published sequence information (GenBank accession number M61906, incorporated herein as SEQ ID NO: 1).
Target sites are indicated by nucleotide numbers, as given in the sequence source reference (Genbank accession no. M61906), to which the oligonucleotide binds. All compounds in Table 1 are oligodeoxynucleotides with phosphorothioate backbones (internucleoside linkages) throughout. […] Data are averages from two experiments. If present, “N.D.” indicates “no data”.
In accordance with the present invention, a second series of oligonucleotides targeted to human PI3K p85 were synthesized. Target sites are indicated by nucleotide numbers, as given in the sequence source reference (Genbank accession no. M61906), to which the oligonucleotide binds.
Cytidine residues in the 2′-MOE wings are 5-methylcytidines.
Data were obtained by real-time quantitative PCR as described in other examples herein and are averaged from two experiments. If present, “N.D.” indicates “no data”.
As for “28055 (antisense eA*eA*e[5mC]*eT*dG*dA*dA*dA*dT*dA*dA*dC*dA*dA*e[5mC]*eT*eT*eA) [compound 28055]”, the “% Inhibition of PI3K p85 mRNA levels” value is reported as 14%.
Turning to “28024 (antisense eG*eG*e[5mC]*eT*dG*dC*dT*dG*dA*dG*dA*dA*dT*dC*eT*eG*eA*eA) [compound 28024]”, the “% Inhibition of PI3K p85 mRNA levels” value stood at 59%.
As for “28022 (antisense eA*eT*eT*eT*dC*dA*dC*dT*dG*dT*dA*dA*dA*dC*eG*eG*e[5mC]*eT) [compound 28022]”, the “% Inhibition of PI3K p85 mRNA levels” value was 69%.
As for “28033 (antisense eA*eT*e[5mC]*e[5mC]*dT*dT*dT*dG*dT*dA*dT*dT*dT*dC*eT*eT*eT*e[5mC]) [compound 28033]”, the “% Inhibition of PI3K p85 mRNA levels” value worked out at 46%.
In the case of “28028 (antisense eA*eT*eT*e[5mC]*dA*dG*dC*dA*dT*dT*dT*dT*dG*dT*eA*eA*eG*eG) [compound 28028]”, the “% Inhibition of PI3K p85 mRNA levels” value is reported as 0%.
As to “28043 (antisense eA*eA*eA*eG*dC*dC*dA*dT*dA*dG*dC*dC*dA*dG*eT*eT*eG*e[5mC]) [compound 28043]”, the “% Inhibition of PI3K p85 mRNA levels” value came to 10%.
In the case of “28026 (antisense eA*eG*eT*eA*dG*dG*dT*dT*dT*dT*dG*dG*dT*dG*eG*eT*eT*eT) [compound 28026]”, the “% Inhibition of PI3K p85 mRNA levels” value worked out at 54%.
Regarding “28017 (antisense eA*eT*e[5mC]*eT*dT*dC*dT*dT*dC*dT*dC*dT*dT*dT*e[5mC]*e[5mC]*eT*eT) [compound 28017]”, the “% Inhibition of PI3K p85 mRNA levels” value was 59%.
Consider “28031 (antisense e[5mC]*e[5mC]*eG*e[5mC]*dT*dC*dT*dT*dG*dG*dG*dT*dC*dT*eG*eG*e[5mC]*eA) [compound 28031]”, for which the “% Inhibition of PI3K p85 mRNA levels” value was found to be 15%.
The same measure, in the same setting: to “28030 (antisense eA*eT*eT*eT*dC*dC*dT*dG*dG*dG*dA*dT*dG*dT*eG*e[5mC]*eG*eG) [compound 28030]” belongs 74%.
Regarding “28053 (antisense eT*eT*e[5mC]*eT*dG*dG*dC*dA*dC*dT*dT*dT*dC*dT*eA*eT*eG*eA) [compound 28053]”, the “% Inhibition of PI3K p85 mRNA levels” value stood at 0%.
Regarding “28038 (antisense eG*eT*e[5mC]*eT*dT*dC*dA*dG*dT*dG*dT*dT*dT*dT*e[5mC]*eA*eT*eT) [compound 28038]”, the “% Inhibition of PI3K p85 mRNA levels” value was found to be 0%.
Still for that read-out and setting: the value for “28044 (antisense eA*e[5mC]*eA*eT*dT*dG*dA*dG*dG*dG*dA*dG*dT*dC*eG*eT*eT*eG) [compound 28044]” was 0%; that for “28018 (antisense eG*e[5mC]*eT*eT*dC*dC*dT*dG*dT*dC*dC*dA*dT*dC*eA*e[5mC]*eT*eG) [compound 28018]” was 47%.
Regarding “28023 (antisense eG*e[5mC]*eT*eT*dG*dA*dA*dG*dA*dA*dA*dT*dG*dT*eT*eT*eT*eA) [compound 28023]”, the “% Inhibition of PI3K p85 mRNA levels” value is reported as 43%.
With “28039 (antisense e[5mC]*eT*eT*eT*dG*dT*dT*dT*dC*dG*dG*dT*dT*dG*e[5mC]*eT*eG*e[5mC]) [compound 28039]”, the “% Inhibition of PI3K p85 mRNA levels” value came out at 46%.
For the substance “28051 (antisense eG*eA*e[5mC]*eG*dT*dG*dC*dC*dT*dT*dT*dC*dT*dG*e[5mC]*eT*eA*e[5mC]) [compound 28051]”, the “% Inhibition of PI3K p85 mRNA levels” value is 53%.
With “28020 (antisense eA*eA*eT*eT*dC*dT*dG*dC*dC*dA*dG*dG*dT*dT*eG*e[5mC]*eT*eG) [compound 28020]”, the “% Inhibition of PI3K p85 mRNA levels” value is 12%.
Regarding “28034 (antisense eT*eT*e[5mC]*eA*dA*dG*dT*dC*dT*dT*dC*dT*dT*dC*e[5mC]*eA*eA*eT) [compound 28034]”, the “% Inhibition of PI3K p85 mRNA levels” value amounted to 28%.
Same read-out and setting: to “28037 (antisense eT*eT*eG*e[5mC]*dC*dC*dA*dA*dC*dC*dA*dC*dT*dC*eG*eT*eT*e[5mC]) [compound 28037]” belongs 28%; to “28042 (antisense e[5mC]*eT*eT*eT*dA*dC*dT*dT*dC*dG*dC*dC*dG*dT*e[5mC]*e[5mC]*eA*e[5mC]) [compound 28042]”, 0%.

The same series, now with this note: phosphorothioate oligodeoxynucleotides, oligonucleotide 150 nM, averages from two experiments.
Turning to “28013 (antisense TTCTGGCACTTTCTATGA; DNA, all phosphorothioate, methylation of C not given here) [compound 28013]”, the “% Inhibition of PI3K p85 mRNA levels” value is listed as 28%.
In the case of “28011 (antisense GACGTGCCTTTCTGCTAC; DNA, all phosphorothioate, methylation of C not given here) [compound 28011]”, the “% Inhibition of PI3K p85 mRNA levels” value was determined as 28%.
Regarding “28014 (antisense CCTTCAGCAAAACAAAAC; DNA, all phosphorothioate, methylation of C not given here) [compound 28014]”, the “% Inhibition of PI3K p85 mRNA levels” value was determined as 24%.
“28001 (antisense CCACCACTACAGAGCAGG; DNA, all phosphorothioate, methylation of C not given here) [compound 28001]”: the “% Inhibition of PI3K p85 mRNA levels” value came to 0%.
As for “27985 (antisense GTTCATTCCATTCAGTTG; DNA, all phosphorothioate, methylation of C not given here) [compound 27985]”, the “% Inhibition of PI3K p85 mRNA levels” value came out at 13%.
As to “28004 (antisense ACATTGAGGGAGTCGTTG; DNA, all phosphorothioate, methylation of C not given here) [compound 28004]”, the “% Inhibition of PI3K p85 mRNA levels” value came to 0%.
As to “28002 (antisense CTTTACTTCGCCGTCCAC; DNA, all phosphorothioate, methylation of C not given here) [compound 28002]”, the “% Inhibition of PI3K p85 mRNA levels” value is recorded as 41%.
In the case of “27995 (antisense ATTGGTCTCTCGTCTTTC; DNA, all phosphorothioate, methylation of C not given here) [compound 27995]”, the “% Inhibition of PI3K p85 mRNA levels” value was found to be 0%.
Consider “27981 (antisense GTAAGTCCAGGAGATAGC; DNA, all phosphorothioate, methylation of C not given here) [compound 27981]”, for which the “% Inhibition of PI3K p85 mRNA levels” value came out at 14%.
With “27992 (antisense TTTCTCATTGCCTTCACG; DNA, all phosphorothioate, methylation of C not given here) [compound 27992]”, the “% Inhibition of PI3K p85 mRNA levels” value amounted to 0%.
As for “28015 (antisense AACTGAAATAACAACTTA; DNA, all phosphorothioate, methylation of C not given here) [compound 28015]”, the “% Inhibition of PI3K p85 mRNA levels” value was 6%.
As to “28008 (antisense CTGCCTCTCTCTCCTCCG; DNA, all phosphorothioate, methylation of C not given here) [compound 28008]”, the “% Inhibition of PI3K p85 mRNA levels” value stood at 0%.
For “27982 (antisense ATTTCACTGTAAACGGCT; DNA, all phosphorothioate, methylation of C not given here) [compound 27982]”, the “% Inhibition of PI3K p85 mRNA levels” value turned out to be 19%.
As for “27998 (antisense GTCTTCAGTGTTTTCATT; DNA, all phosphorothioate, methylation of C not given here) [compound 27998]”, the “% Inhibition of PI3K p85 mRNA levels” value is 0%.
Regarding “27999 (antisense CTTTGTTTCGGTTGCTGC; DNA, all phosphorothioate, methylation of C not given here) [compound 27999]”, the “% Inhibition of PI3K p85 mRNA levels” value is recorded as 36%.
Regarding “28010 (antisense TGTCTGGGTCCACCGTGC; DNA, all phosphorothioate, methylation of C not given here) [compound 28010]”, the “% Inhibition of PI3K p85 mRNA levels” value is 55%.
Still for that read-out and setting: to “27990 (antisense ATTTCCTGGGATGTGCGG; DNA, all phosphorothioate, methylation of C not given here) [compound 27990]” belongs 52%.
Take “27988 (antisense ATTCAGCATTTTGTAAGG; DNA, all phosphorothioate, methylation of C not given here) [compound 27988]”: the “% Inhibition of PI3K p85 mRNA levels” value is 1%.
Same read-out and setting: the value for “28009 (antisense CCAGGCTAAACCAGGCTG; DNA, all phosphorothioate, methylation of C not given here) [compound 28009]” was 57%; that for “28012 (antisense ATTCTCCCAAAGCGTCCC; DNA, all phosphorothioate, methylation of C not given here) [compound 28012]” was 19%.
